Test results taken from patent publication US20180105876A1, “MEDICATION DOSING REPORT” (BAYCREST TECHNOLOGY PTY LTD, priority 2015, published 2018).

Tested on: patients suffering major depressive disorder
Experiment: open-label desvenlafaxine treatment of MDD outpatients, HDRS assessed every two weeks
Type: in vivo, human
Experimental: A […] clinical trial was performed to examine the clinical validity of a five gene, combinatorial, pharmacogenetic-based antidepressant dosing support tool for desvenlafaxine dosing. Participants were self-identified Caucasian outpatients aged 18 years and older with a principal DSM-5 diagnosis of MDD (semi-structured psychiatrist assessment) and a 17-item Hamilton Depression Rating Scale (HDRS) score greater than or equal to 18. Participants with other active psychiatric diagnoses were excluded, specifically those suffering with adjustment disorder with depressed mood, persistent depressive disorder, and subjects with a principal clinical diagnosis of a personality disorder. Additional exclusion criteria included pregnancy or breastfeeding, hepatic or renal impairments, co-prescription of known UGT1A1 or ABCB1 inducers/inhibitors (e.g. St John's Wort, valproic acid), regular grapefruit juice consumption, and current smoking which may influence appropriate dosing. A total of 131 individuals were screened for eligibility criteria. […] All participants received desvenlafaxine in an open-label manner during the 10-week study period. At baseline, age, sex, duration of the current depressive episode, and number of depressive episodes was recorded. […] Symptom severity was assessed at baseline and every two-weeks thereafter during the study period with the HDRS. […]

CN(C)CC(c1ccc(O)cc1)C1(O)CCCCC1 (centres unmarked) [desvenlafaxine]
participants achieved symptom remission (HDRS score of 7 or less by week 10) (after 10 weeks of desvenlafaxine treatment, 119 MDD participants, dose adjusted every two weeks): 80% | greater than 50% reduction in HDRS from baseline (among the 24 participants who did not achieve symptom remission by week 10): 42%
